Results as given in PubChem BioAssay AID2060510 (Molecular Pharmacology Branch, DTP, NCI, 2025).

Test system: 439559-082-T-J2-PDC spheroids viability
Assay: Anticancer human tumor 439559-082-T-J2-PDC patient-derived colon adenocarcinoma cell line growth inhibition [GQUAD]
Conditions: for IC50: curve of first compound; for viability, T/C: stronger effect = lower value; active = viability on the fitted dose curve at most 10% of control; inactive = the rest
How it was run: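 Tumor cells were grown as complex spheroids with HUVEC endothelial cells and mesenchymal stem cells as stroma. G-quadruplex stabilizers were combined with targeted agents over half-log dilutions from near the clinical Cmax, or from 10 microM.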

[1] = second compound 0.0316 µM, first compound 0.0316 µM
[2] = second compound 0.0316 µM, first compound 0.1 µM
[3] = second compound 0.0316 µM, first compound 0.316 µM
[4] = second compound 0.0316 µM, first compound 1 µM
[5] = second compound 0.0316 µM, first compound 3.16 µM
[6] = second compound 0.0316 µM, first compound 10 µM
[7] = second compound 0.1 µM, first compound 0.0316 µM
[8] = second compound 0.1 µM, first compound 0.1 µM
[9] = second compound 0.1 µM, first compound 0.316 µM
[10] = second compound 0.1 µM, first compound 1 µM
[11] = second compound 0.1 µM, first compound 3.16 µM
[12] = second compound 0.1 µM, first compound 10 µM
[13] = second compound 0.316 µM, first compound 0.0316 µM
[14] = second compound 0.316 µM, first compound 0.1 µM
[15] = second compound 0.316 µM, first compound 0.316 µM
[16] = second compound 0.316 µM, first compound 1 µM
[17] = second compound 0.316 µM, first compound 3.16 µM
[18] = second compound 0.316 µM, first compound 10 µM
[19] = second compound 1 µM, first compound 0.0316 µM
[20] = second compound 1 µM, first compound 0.1 µM
[21] = second compound 1 µM, first compound 0.316 µM
[22] = second compound 1 µM, first compound 1 µM
[23] = second compound 1 µM, first compound 3.16 µM
[24] = second compound 1 µM, first compound 10 µM
[25] = second compound 3.16 µM, first compound 0.0316 µM
[26] = second compound 3.16 µM, first compound 0.1 µM
[27] = second compound 3.16 µM, first compound 0.316 µM
[28] = second compound 3.16 µM, first compound 1 µM
[29] = second compound 3.16 µM, first compound 3.16 µM
[30] = second compound 3.16 µM, first compound 10 µM
[31] = second compound 10 µM, first compound 0.0316 µM
[32] = second compound 10 µM, first compound 0.1 µM
[33] = second compound 10 µM, first compound 0.316 µM
[34] = second compound 10 µM, first compound 1 µM
[35] = second compound 10 µM, first compound 3.16 µM
[36] = second compound 10 µM, first compound 10 µM
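Also: spheroids exposed to the agents for 7 days before readout.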
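For viability, T/C in this document: percent of luminescence signal in DMSO vehicle wells taken as 100% viability.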

COc1ncnc(C2CC2)c1-c1ncc2cnn(Cc3ccc(-c4nc(C(F)(F)F)cn4C(C)C)cc3)c2n1 + CN(C)c1ccc(Nc2c3ccc(NC(=O)CCN4CCCC4)cc3nc3cc(NC(=O)CCN4CCCC4)ccc23)cc1
inactive: viability, T/C [1] 93.2% | viability, T/C [2] 106% | viability, T/C [3] 90.6% | viability, T/C [4] 89.5% | viability, T/C [5] 103% | viability, T/C [6] 98.5% | viability, T/C [7] 98.7% | viability, T/C [8] 93.5% | viability, T/C [9] 97.5% | viability, T/C [10] 99.1% | viability, T/C [11] 94.8% | viability, T/C [12] 96.6% | viability, T/C [13] 91.6% | viability, T/C [14] 96.1% | viability, T/C [15] 82.7% | viability, T/C [16] 97.7% | viability, T/C [17] 96.8% | viability, T/C [18] 102% | viability, T/C [19] 98.8% | viability, T/C [20] 96.3% | viability, T/C [21] 98.4% | viability, T/C [22] 87.9% | viability, T/C [23] 104% | viability, T/C [24] 92.7% | viability, T/C [25] 90.4% | viability, T/C [26] 98.4% | viability, T/C [27] 91.6% | viability, T/C [28] 93.5% | viability, T/C [29] 96% | viability, T/C [30] 99% | viability, T/C [31] 89.3% | viability, T/C [32] 86.2% | viability, T/C [33] 90.6% | viability, T/C [34] 96.6% | viability, T/C [35] 105% | viability, T/C [36] 92.6%
> 10 µM: IC50 (second compound 0.0316 µM) | IC50 (second compound 0.1 µM) | IC50 (second compound 0.316 µM) | IC50 (second compound 1 µM) | IC50 (second compound 3.16 µM) | IC50 (second compound 10 µM)

CC1COCCN1c1cc(-c2ccnn2C)c2ccnc(-c3ccn[nH]3)c2n1 (centres undefined) + Cc1[nH]c2ccc(F)cc2c1-c1nc2c3cccnc3c3ncccc3c2[nH]1
0.227 µM: IC50 (second compound 3.16 µM)
inactive: viability, T/C [1] 106% | viability, T/C [2] 80.6% | viability, T/C [3] 53.5% | viability, T/C [4] 38.8% | viability, T/C [5] 35.8% | viability, T/C [6] 30.7% | viability, T/C [7] 103% | viability, T/C [8] 77.2% | viability, T/C [9] 45.7% | viability, T/C [10] 36.9% | viability, T/C [11] 40.8% | viability, T/C [12] 34.5% | viability, T/C [13] 101% | viability, T/C [14] 87.4% | viability, T/C [15] 47.8% | viability, T/C [16] 34% | viability, T/C [17] 41.6% | viability, T/C [18] 30.2% | viability, T/C [19] 91.6% | viability, T/C [20] 82% | viability, T/C [21] 46% | viability, T/C [22] 31.9% | viability, T/C [23] 39.6% | viability, T/C [24] 29.8% | viability, T/C [25] 88.2% | viability, T/C [26] 73.5% | viability, T/C [27] 40.6% | viability, T/C [28] 30.3% | viability, T/C [29] 34.1% | viability, T/C [30] 27.4% | viability, T/C [31] 76.1% | viability, T/C [32] 73.5% | viability, T/C [33] 36.8% | viability, T/C [34] 31.6% | viability, T/C [35] 32.8% | viability, T/C [36] 29.6%
0.295 µM: IC50 (second compound 0.316 µM)
0.269 µM: IC50 (second compound 0.1 µM)
0.209 µM: IC50 (second compound 10 µM)
0.276 µM: IC50 (second compound 1 µM)
0.427 µM: IC50 (second compound 0.0316 µM)
